This is an account of results in US20020137929A1, “1 - (3-heterocyclylphenyl) isothiourea, -isourea, -guanidine and -amidine herbicidal agents” (Intellectual Property Department, BASF Aktiengesellschaft, priority 1998, published 2002).

The subject of assay [1] is CHEAL (Lambsquarters, Common). Put plainly: Postemergence herbicidal evaluation. The following applies: for Herbicidal rating CHEAL / CHEAL herbicidal rating: postemergence. Type of assay: in vivo, Chenopodium album. In a few lines: (§1)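 Visual 0-9 injury score (stand, vigor, malformation, size, chlorosis, appearance vs untreated) taken four to five weeks post-spray, averaged across repeat tests. Test plants about two weeks old; foliar spray of acetone/water (1:1) with 0.5% surfactant delivering ~0.0156-0.500 kg active/ha.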

Assay [2] relates to CHEAL (Lambsquarters, Common). Briefly: Preemergence herbicidal evaluation. The following applies: rated 4-5 weeks after treatment. In kind it is in vivo, Chenopodium album. In a few lines:
(§2)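 Rating at 4–5 wk post-spray on a 0–9 visual scale vs control. Application: aqueous acetone, ~0.0156–0.500 kg/ha, to soil surface after seeding, preemergence.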

The test system of a further assay is CASOB (Sicklepod). Briefly: Postemergence herbicidal evaluation. To be noted: for Herbicidal rating CASOB / CASOB herbicidal rating: postemergence. Type of assay: in vivo, Cassia obtusifolia. In a few lines:
as §1

In assay [3] the test system is TRZAWR (Wheat, Winter, cv Riband). Put plainly: Postemergence herbicidal evaluation. Type of assay: in vivo, Triticum aestivum. To be noted: for Herbicidal rating TRZAWR / TRZAWR herbicidal rating: postemergence. A digest of the protocol: as §1
Another assay concerns ORYSAT (Rice, Tebonnet). Briefly: Preemergence herbicidal evaluation. To be noted: rated 4-5 weeks after treatment. In kind it is in vivo, Oryza sativa, (L.) Tebonnet. In a few lines:
as §2

Setting [4] is: rate 0.0625 kg/ha, rating scale 0-9.
The mark [5] stands for this setting: rate 0.1250 kg/ha, rating scale 0-9.
[6] abbreviates: rate 0.2500 kg/ha, rating scale 0-9.
The mark [7] stands for this setting: rate 0.0156 kg/ha, rating scale 0-9.
Setting [8] is: rate 0.0313 kg/ha, rating scale 0-9.

Regarding `COCCCN1C(=O)CSC1=Nc1cc(-n2c(=O)cc(C(F)(F)F)n(C)c2=O)c(F)cc1Cl` [Compound 172, 3-{4-Chloro-2-fluoro-5-{[3-(3-methoxypropyl)-4-oxo-2-thiazolidinylidene]amino}phenyl}-1-methyl-6-(trifluoromethyl)-2,4(1H, 3H)-pyrimidinedione], the “Postemergence herbicidal rating CHEAL” value is listed as 9.0 in assay [1] (Rate 0.0313 kg/ha), 9.0 in assay [1] (Rate 0.0625 kg/ha) and 6.0 in assay [1] (rate 0.0156 kg/ha). For the same molecule, the “Preemergence herbicidal rating CHEAL” value in assay [2] (0.0156 kg/ha), in assay [2] (0.0313 kg/ha), in assay [2] (0.0625 kg/ha), in assay [2] (0.1250 kg/ha) and in assay [2] (0.2500 kg/ha) was 9.0 in each case. Moreover, the figures for the “Postemergence herbicidal rating CASOB” value in the assay with CASOB (Sicklepod) (Rate 0.0313 kg/ha), in the assay on CASOB (Sicklepod) (Rate 0.0625 kg/ha) and in the assay on CASOB (Sicklepod) (rate 0.0156 kg/ha) were 2.0, 2.0 and 1.0, respectively. Besides, the “Postemergence herbicidal rating TRZAWR” value worked out at 4.5 in assay [3] (Rate 0.0313 kg/ha), 4.0 in assay [3] (Rate 0.0625 kg/ha) and 4.0 in assay [3] (rate 0.0156 kg/ha). For the same molecule, the “Preemergence herbicidal rating ORYSAT” value in the assay with ORYSAT (Rice, Tebonnet) (0.0156 kg/ha) was 2.0; in the assay on ORYSAT (Rice, Tebonnet) (0.0313 kg/ha), 5.0; with ORYSAT (Rice, Tebonnet) (0.0625 kg/ha) it was 7.0; in the assay with ORYSAT (Rice, Tebonnet) (0.1250 kg/ha), 7.0; in the assay with ORYSAT (Rice, Tebonnet) (0.2500 kg/ha) it was 8.0.

In the case of `CCN1C(=O)CSC1=Nc1cc(-n2c(=O)cc(C(F)(F)F)n(C)c2=O)c(F)cc1Cl` [Compound 159, 3-{4-Chloro-5-[(3-ethyl-4-oxo-2-thiazolidinyl-idene)amino]-2-fluorophenyl}-1-methyl-6-(trifluoromethyl)-2,4(1H,3H)-pyrimidinedione], the “Herbicidal rating CHEAL” value is on record as 3.0 in assay [1] (rate 0.0156 kg/ha), 4.0 in assay [1] (rate 0.0313 kg/ha) and 5.0 in assay [1] (rate 0.0625 kg/ha). Further, the “Preemergence herbicidal rating CHEAL” value is on record as 7.0 in assay [2] (0.0156 kg/ha); 9.0 in assay [2] (0.0313 kg/ha); 8.0 in assay [2] (0.0625 kg/ha); 9.0 in assay [2] (0.1250 kg/ha); 9.0 in assay [2] (0.2500 kg/ha). Further, the entries for the “Herbicidal rating CASOB” value in the assay on CASOB (Sicklepod) (rate 0.0156 kg/ha), with CASOB (Sicklepod) (rate 0.0313 kg/ha) and in the assay with CASOB (Sicklepod) (rate 0.0625 kg/ha) were 0.0, 1.0 and 7.0, respectively. In addition, the “Herbicidal rating TRZAWR” value is 2.5 in assay [3] (rate 0.0156 kg/ha), 3.5 in assay [3] (rate 0.0313 kg/ha) and 3.5 in assay [3] (rate 0.0625 kg/ha). Also, the “Preemergence herbicidal rating ORYSAT” value in the assay with ORYSAT (Rice, Tebonnet) (0.0156 kg/ha) is on record as 0.0; in the assay on ORYSAT (Rice, Tebonnet) (0.0313 kg/ha) it was 0.0; in the assay with ORYSAT (Rice, Tebonnet) (0.0625 kg/ha), 0.0; with ORYSAT (Rice, Tebonnet) (0.1250 kg/ha), 1.0; in the assay with ORYSAT (Rice, Tebonnet) (0.2500 kg/ha), 2.0.

As for `COc1cc(CN2C(=O)CSC2=Nc2cc(-n3c(=O)cc(C(F)(F)F)n(C)c3=O)c(F)cc2Cl)cc(OC)c1OC` [Compound 140, 3-{4-Chloro-2-fluoro-5-{[3-(3,4,5-trimethoxybenzyl)-4-oxo-2-thiazolidinylidene]amino}phenyl}-1-methyl-6-(trifluoromethyl)-2,4(1H,3H)-pyrimidinedione], the “Herbicidal rating CHEAL” value in assay [1] (rate 0.0156 kg/ha) and in assay [1] (rate 0.0625 kg/ha) was 3.0 throughout. Also, the “Preemergence herbicidal rating CHEAL” value in assay [2] (setting [4]), in assay [2] (setting [5]) and in assay [2] (setting [6]) was 9.0 in each case. For the same molecule, the “Herbicidal rating CASOB” value in the assay with CASOB (Sicklepod) (rate 0.0156 kg/ha), in the assay with CASOB (Sicklepod) (rate 0.0313 kg/ha) and in the assay on CASOB (Sicklepod) (rate 0.0625 kg/ha) was 0.0 each time. Also, the “Herbicidal rating TRZAWR” value in assay [3] (rate 0.0156 kg/ha) is 2.5; in assay [3] (rate 0.0313 kg/ha) it was 3.5; in assay [3] (rate 0.0625 kg/ha), 4.0. For the same molecule, the “Preemergence herbicidal rating ORYSAT” value with ORYSAT (Rice, Tebonnet) (setting [4]) was determined as 0.0; with ORYSAT (Rice, Tebonnet) (setting [5]), 0.0; in the assay on ORYSAT (Rice, Tebonnet) (setting [6]) it was 0.0.

Turning to `CCOC(=O)CN1C(=O)C(Cc2ccccc2OC)SC1=Nc1cc(-n2c(=O)cc(C(F)(F)F)n(C)c2=O)c(F)cc1Cl` (stereo not drawn) [Compound 37, Ethyl 2-{{2-chloro-5-[3,6-dihydro-3-methyl-2,6-dioxo-4-(trifluoromethyl)-1(2H)-pyrimidinyl]-4-fluorophenyl}imino}-5-(o-methoxybenzyl)-4-oxo-3-thiazolidineacetate], the “Postemergence herbicidal rating CHEAL” value in assay [1] (Rate 0.0158 kg/ha), in assay [1] (Rate 0.0315 kg/ha) and in assay [1] (Rate 0.0630 kg/ha) was 3.0 in each case. Besides, the “Preemergence herbicidal rating CHEAL” value in assay [2] (rate 0.1250 kg/ha) and in assay [2] (rate 0.2500 kg/ha) was 9.0 in each case. Moreover, the “Postemergence herbicidal rating CASOB” value in the assay with CASOB (Sicklepod) (Rate 0.0158 kg/ha), with CASOB (Sicklepod) (Rate 0.0315 kg/ha) and in the assay with CASOB (Sicklepod) (Rate 0.0630 kg/ha) was 0.0 each time. The “Postemergence herbicidal rating TRZAWR” value in assay [3] (Rate 0.0158 kg/ha), in assay [3] (Rate 0.0315 kg/ha) and in assay [3] (Rate 0.0630 kg/ha) was 2.0 in each case. The “Preemergence herbicidal rating ORYSAT” value with ORYSAT (Rice, Tebonnet) (rate 0.1250 kg/ha) amounted to 0.0; with ORYSAT (Rice, Tebonnet) (rate 0.2500 kg/ha) it was 0.0.

With `COC(=O)[C@@H](Cc1ccccc1)N1C(=O)CSC1=Nc1cc(-n2c(=O)cc(C(F)(F)F)n(C)c2=O)c(F)cc1Cl` [Compound 74, Methyl α-benzyl-2-{{2-chloro-5-[3,6-dihydro-3-methyl-2,6-dioxo-4-(trifluoromethyl)-1(2H)-pyrimidinyl]-4-fluorophenyl}imino}-4-oxo-3-thiazolidineacetate, D-], the CHEAL herbicidal rating in assay [1] (rate 0.0158 kg/ha) and in assay [1] (rate 0.0315 kg/ha) was 9.0 each time. Moreover, the “Preemergence herbicidal rating CHEAL” value in assay [2] (rate 0.0156 kg/ha), in assay [2] (rate 0.0313 kg/ha), in assay [2] (rate 0.0625 kg/ha), in assay [2] (rate 0.1250 kg/ha) and in assay [2] (rate 0.2500 kg/ha) was 9.0 each time. The CASOB herbicidal rating in the assay on CASOB (Sicklepod) (rate 0.0158 kg/ha) is 3.0; in the assay on CASOB (Sicklepod) (rate 0.0315 kg/ha), 4.0; with CASOB (Sicklepod) (rate 0.0630 kg/ha), 9.0. In addition, the TRZAWR herbicidal rating in assay [3] (rate 0.0158 kg/ha) is reported as 3.5; in assay [3] (rate 0.0315 kg/ha), 4.5; in assay [3] (rate 0.0630 kg/ha), 6.0. In addition, the “Preemergence herbicidal rating ORYSAT” value came out at 0.0 in the assay with ORYSAT (Rice, Tebonnet) (rate 0.0156 kg/ha); 0.0 in the assay on ORYSAT (Rice, Tebonnet) (rate 0.0313 kg/ha); 1.0 in the assay on ORYSAT (Rice, Tebonnet) (rate 0.0625 kg/ha); 1.0 in the assay on ORYSAT (Rice, Tebonnet) (rate 0.1250 kg/ha); 1.0 with ORYSAT (Rice, Tebonnet) (rate 0.2500 kg/ha).

In the case of `C=C1SC(=Nc2cc(-n3c(=O)cc(C(F)(F)F)n(C)c3=O)c(F)cc2Cl)N(CC(=O)OCC)C1=O` [Compound 154], the “Herbicidal rating CHEAL” value in assay [1] (rate 0.0156 kg/ha), in assay [1] (rate 0.0313 kg/ha) and in assay [1] (rate 0.0625 kg/ha) was 9.0 each time. In addition, the “Preemergence herbicidal rating CHEAL” value in assay [2] (setting [7]), in assay [2] (setting [8]), in assay [2] (setting [4]), in assay [2] (setting [5]) and in assay [2] (setting [6]) was 9.0 each time. The “Herbicidal rating CASOB” value with CASOB (Sicklepod) (rate 0.0156 kg/ha) is recorded as 0.0; in the assay on CASOB (Sicklepod) (rate 0.0313 kg/ha), 0.0; in the assay on CASOB (Sicklepod) (rate 0.0625 kg/ha) it was 1.0. In addition, the results for the “Herbicidal rating TRZAWR” value in assay [3] (rate 0.0156 kg/ha), in assay [3] (rate 0.0313 kg/ha) and in assay [3] (rate 0.0625 kg/ha) were 3.5, 3.5 and 4.0, respectively. Further, the “Preemergence herbicidal rating ORYSAT” value in the assay on ORYSAT (Rice, Tebonnet) (setting [7]) was 3.0; with ORYSAT (Rice, Tebonnet) (setting [8]) it was 4.0; with ORYSAT (Rice, Tebonnet) (setting [4]), 8.0; in the assay on ORYSAT (Rice, Tebonnet) (setting [5]) it was 9.0; in the assay on ORYSAT (Rice, Tebonnet) (setting [6]), 9.0.
